How the values were obtained:
[1] = system: pre-menopausal adult women diagnosed with endometriosis; assay: Six month endometriosis study: pain diaries and pain intensity surveys; assay type: in vivo, human; conditions: for pain free days, percent: 180 day treatment period
Method: Pain reduction also occurred more rapidly than with the active control, Lucrin®. The response of pain to treatment in this study was analyzed in two ways. Patients in the study maintained daily pain diaries to record the severity and frequency of pain. In addition, at each office visit, patients filled out endometriosis symptom surveys that included a questionnaire that evaluated intensity of pain on a bad day on a scale of 0-10 with 10 being the greatest intensity. […] This decrease in duration of pain was statistically better (p=0.0012) than the 117.8 (74%; standard deviation 51.4 days) pain free days achieved with Lucrin n. […] Patients on CDB-4124 12.5 mg and 25 mg doses had 115.9 (66%; standard deviation 69.2 days) and 133.6 (75%; standard deviation 27.4 days) pain free days, respectively. […] The 25 mg and 12.5 mg doses of CDB-4124 were not statistically different from Lucrin®. […] The intensity of pain was asked by the question: “On a scale of 1-10, with 0 being no pain and 10 being extreme pain, how intense was your pain on a bad day?” The mean scores for intensity of pain at baseline were 6.3 for the CDB-4124 groups and 6.1 for the Lucrin® group. […] At month three all four active treatment groups had satistically significant reduction in pain compared with baseline, with the following scores: 3.7 (p=0.03) for 12.5 mg CDB-4124, 3.2 (p=0.03) for 25 mg CDB-4124, 1.6 (p=0.015) for 50 mg CDB-4124 and 1.5 (p=0.016) for Lucrin®. These dose related reductions continued until month six when the values for pain intensity were 2.0 (p=0.008), 2.8 (p=0.023), 0.6 (p=0.004) and 0.7 (p=0.016), respectively. Two months after stopping treatment pain returned and was of similar intensity in all four treatment groups.

[2] = system: progesterone-induced endometrial glandular proliferation in rabbit uterus; assay: anti-McGinty and anti-Clauberg assays in the rabbit uterus; assay type: in vivo
Text: Also given in Table 1 are the relative biological activities of the same compounds in the rabbit uterus by the anti-McGinty and anti-Clauberg assays. Compound CDB-2914 (listed at the end of the Table) was used as the control or reference compound (rabbit Biological Activity=1.00) for these experiments because results of experiments using CDB-2914 have been published before (Hild-Petito et al., 1996; Passaro et al., 1997; Reel et al., 1998; Lamer et al., 2000). For the anti-McGinty test, immature female rabbits received a subcutaneous injection of 5 μg estradiol in 10% ethanol/sesame oil daily for 6 consecutive days. On day 7, animals underwent sterile abdominal surgery to ligate a 3-4 cm segment of both uterine horns. The test compound in appropriate solvent was injected intraluminally into the ligated segment of one uterine horn and vehicle alone into the other. A stimulating dose of progesterone (267 μg/day) was administered subcutaneously to each rabbit daily for the next three days to induce endometrial proliferation. All animals were sacrificed at day 10 for removal of the uterus where a segment central to the ligatures was removed and fixed in 10% neutral buffered formalin and submitted for histological processing. Five micron sections stained with hematoxylin and cosin were evaluated microscopically for the degree of endometrial glandular proliferation. The percent inhibition of endometrial proliferation for each rabbit was calculated and the mean of the group of five animals recorded. For the Anti-Clauberg test, immature female rabbits received a subcutaneous injection of 5 μg estradiol in 10% ethanol/sesame oil daily for 6 consecutive days. On day 7, animals received progesterone by subcutaneous injection (160 μg/day) and the experimental compound in appropriate vehicle orally or subcutaneously for five consecutive days. One group of rabbits received progesterone only. Twenty-four hours after the last dose, all animals were sacrificed for removal of the uterus which was cleaned of all fat and connective tissue, weighed to the nearest 0.2 mg and placed in 10% neutral buffered formalin for subsequent histological processing. Five micron sections stained with hematoxylin and eosin were evaluated microscopically for the degree of endometrial glandular proliferation. The percent inhibition of endometrial proliferation at each dose level of the test compound was derived by comparison with progesterone-stimulated animals alone. The data presented in Table 1 (rabbit Biol. Act.) reflects the average of the results obtained for each compound by the anti-McGinty and anti-Clauberg assays relative to CDB-2914.

[3] = Estrogenic, androgenic, anti-estrogenic and anti-androgenic activities
[4] = Urinary estrogen levels (follicular phase) in cynomolgus monkeys; assay type: in vivo, Cynomolgus monkeys (Macaca fascicularis); design: Urinary estrogen, follicular phase, Mean: unit not given here; conditions: for Urinary estrogen, follicular phase, Mean: CDB-4124 or RU-486 oral 1.0 mg/kg/day, Lupron IM once per month
Method: Cynomolgus monkeys (Macaca fascicularis) (n=14) were treated orally for 36 weeks with CDB-4124 or RU-486 at 1.0 mg/kg/day or with placebo (control). Another group (n=14) received Lupron® IM once per month. Urinary progesterone levels were measured for each animal for one month during the middle of the study (weeks 14-17) and for the last month of the study (weeks 33-36). The results are presented below:
Urinary estrogen levels were measured for each animal of Example 6 for one month during the middle of the study (weeks 14-17) and for the last month of the study (weeks 33-36). The follicular phase results are based on 35 baseline ovulating cycles.

[5] = system: pre-menopausal adult women diagnosed with endometriosis; assay: Six month endometriosis study: side effects and bleeding events; assay type: in vivo, human
Method: Although this was a small study and no definitive conclusions can be made from the safety data, there was no single signal of safety observed.
A similar event was not seen at the 50 mg dose during the treatment phase. Greater than normal bleeding occurred in two patients in the 50 mg CDB-4124 group after treatment was stopped and a D&C was performed in one and the other successfully managed conservatively.

[6] = Six month endometriosis study: estrogen concentrations and biomarkers of bone resorption; conditions: women
Method: Thirty-nine pre-menopausal adult women diagnosed with endometriosis were the subject of a six month study of Proellex™ (CDB-4124) in the treatment of endometriosis. The study included three dose levels of CDB-4124 as well as a positive control arm. The positive control was Lucrin®, a GnRH agonist, commonly used for the treatment of endometriosis (also known as Lupron®). CDB-4124 was administered in a double blinded fashion as a daily oral capsule at dosages of 12.5mg/day (n=2), 25mg/day (n=3) and 50mg/day (n=3). Another group (n=4) were injected with a slow release formulation of Lucrin® once per month as a positive control.

## COCC(=O)[C@@]1(OC(C)=O)CC[C@H]2[C@@H]3CCC4=CC(=O)CCC4=C3[C@@H](c3ccc(N(C)C)cc3)C[C@@]21C [CDB-4124, 21-methoxy-17α-acetoxy-11β-(4 N,N-dimethylaminophenyl)-19-norpregna-4,9-diene-3,20-dione]
[1]; baseline
  mean score for intensity of pain on a bad day (scale 0-10): 6.3
[1]; month six, 12.5 mg/day
  score for intensity of pain on a bad day (scale 0-10): 2.0
[1]; month six, 25 mg/day
  score for intensity of pain on a bad day (scale 0-10): 2.8
[1]; month six, 50 mg/day
  score for intensity of pain on a bad day (scale 0-10): 0.6
[1]; month three, 12.5 mg/day
  score for intensity of pain on a bad day (scale 0-10): 3.7
[1]; month three, 25 mg/day
  score for intensity of pain on a bad day (scale 0-10): 3.2
[1]; month three, 50 mg/day
  score for intensity of pain on a bad day (scale 0-10): 1.6
[1]; women, 12.5 mg/day oral
  pain free days over the 180 day treatment period: 115.9 days
  pain free days, percent: 66%
[1]; women, 25 mg/day oral
  pain free days over the 180 day treatment period: 133.6 days
  pain free days, percent: 75%
[1]; women, 50 mg/day oral
  days of pain over the first three months: less than 1 day
  pain free days over the 180 day treatment period: 170 days
  pain free days, percent: 96%
[2]; average of anti-McGinty and anti-Clauberg results relative to CDB-2914 (=1.00)
  rabbit Biol. Act.: 3.60
[2]; in comparison to RU 486 and CDB-2914
  antiprogestin activity in the rabbit uterus: strong antiprogestin activity
[3]
  estrogenic, androgenic, anti-estrogenic, and anti-androgenic activities: lack estrogenic, androgenic, anti-estrogenic, and anti-androgenic activities
[4]; Week 18
  Follicular phase estrogen Lower?: No
  Urinary estrogen, follicular phase, Mean: 63.8
[4]; Week 36
  Follicular phase estrogen Lower?: No
  Urinary estrogen, follicular phase, Mean: 67.3
[5]; 12.5 mg and 25 mg CDB-4124 groups, treatment phase
  cases of non-menstrual spotting and bleeding with excessive endometrial thickening needing D&C: two cases
[5]; 50 mg CDB-4124 group
  patients with greater than normal bleeding after treatment was stopped: two patients
[5]; 50 mg dose, treatment phase
  non-menstrual spotting and bleeding with excessive endometrial thickening needing D&C: not seen
[5]; women, six month study
  side effects: generally mild
[6]; all doses of CDB-4124 (12.5, 25, 50 mg/day)
  estrogen concentrations (mean): > 40 pg/mL
[6]; three and six months of treatment
  biomarkers of bone resorption compared with baseline: no significant changes

Reference: patent US20090118253A1, “COMPOSITIONS AND METHODS FOR TREATING DYSFUNCTIONAL UTERINE BLEEDING” (REPROS THERAPEUTICS INC., priority 2007, published 2009)
